Source: patent US12150940B2, “WASp-protecting small molecules, compositions, methods and uses thereof in the treatment of innate and acquired immune-related disorders or conditions” (BAR ILAN UNIVERSITY, priority 2016, dated 2024)

Legend:
[1] = test system: Jurkat T cells; experiment: Lymphocyte activation in Jurkat T cells (CD69 and activated LFA-1, flow cytometry); format: cell-based, human; settings: Jurkat T cells stimulated with PMA and Ionomycin, vs control
Procedure: FIGS. 9A and 9B, show 1×10^6 Jurkat T cells/ml, stimulated with PMA and Ionomycin, were treated with WASp-binding SMC #6 or control. After incubation, the cells were stained with anti-activated LFA-1 antibody (KIM127), followed by staining with Alexa488-Fluor goat anti-mouse IgG1 secondary antibody (FIG. 9B). Cells were co-stained with PE-Cy5™-conjugated mouse anti-human CD69 and lymphocyte activation was measured by flow-cytometry as described in the Experimental procedures (FIG. 9A). Histograms of negative control versus SMC #6 are presented.
(§1) PBMCs or Jurkat cells (about 3×10^5 cells) were incubated for 4 h, at 37° C. with 50 ng/ml PMA and 250 ng/ml lonomycin, or 40 ng/ml PMA and 6 μM Ionomycin, respectively, or left untreated. After incubation, the cells were collected and stained with 1 μg/ml anti-active human LFA-1 antibody (purified from KIM127 hybridoma sup, ATCC Cat #: CRL-2838, Sigma) for 30 min in 37° C., followed by staining with Alexa488-Fluor goat anti-mouse IgG1 secondary antibody (Molecular Probes, Cat #: A-21121), 30 min on ice. Cells were then co-stained with PE-Cy5™-conjugated mouse anti-human CD69 (BD Pharmingen, Cat #: 555532) to measure lymphocyte activation.
Once activated, lymphocytes proliferate to effectively amplify the immune response. […]

[2] = target: T1, N-WASp (Homo sapiens, UniProt O00401); experiment: MST binding, YFP-N-WASp in HEK 293T cell lysate
T1 construct: expressed in transfected cells; host or cells: HEK 293T, transient transfection; unpurified cell lysate
Procedure: Diluted cell lysates of YFP-WASp/N-WASp/WAVE2-expressing HEK 293T cells were incubated with serially-diluted (100 μM-3 nM) SMCs. The mixed lysates and SMCs were then loaded into standard-treated Monolith™ capillaries and the fluorescence of the samples was measured by the Monolith NT.115 instrument at 60% MST power. Binding curves of WASp with SMC #6 (FIG. 3A), SMC #30 (FIG. 3B), SMC #33 (FIG. 3C), SMC #34 (FIG. 3D) and Y-27632 (FIG. 3E) or of N-WASp (FIG. 3F) or WAVE2 (FIG. 3G) with SMC #34 were generated by the NanoTemper Analysis 2.231 software. Normalized fluorescence (hot fluorescence/initial fluorescence) is plotted as a function of SMC concentration. […]
YFP-tagged WASp was obtained from cell lysates of Human Embryonic Kidney (HEK) 293T, transiently transfected with YFP-WASp/WAVE2/N-WASp by DNA-calcium phosphate co-precipitation as previously described (Reicher et al, 2012). […] After loading into the instrument (Monolith NT.115, NanoTemper), the samples were measured by standard protocols at 60% MST power. […] KD values were determined using the NanoTemper analysis software (NT Analysis 1.5.37 or 2.2.31).
Following this in silico screening, the inventors identified eight SMCs (#6, #23, #24, #25, #30, #32, #33, #34, see Table 1). […] The SMCs that specifically bind the degradation pocket of WASp were further evaluated by the inventors.

[3] = test system: WAS−/−/WASp Y107C Jurkat T-cells; experiment: Lymphocyte migration on ICAM-1/SDF-1α, WAS−/−/WASp Y107C cells; format: cell-based, human
Procedure: WASp knockout Jurkat T-cell lines that express only exogenous YFP-WASp R86C (WAS^−/−/WASp R86C) or Y107C (WAS^−/−/WASp Y107C) were pretreated with SMC #34 in comparison to cells treated with the control. Cells that completely lack WASp expression (WAS^−/−) were also treated with the control. Cellular migration was tracked over a 20-min period on ICAM-1/SDF-1α-coated cover glasses, as described in Experimental procedures.
Approximately 1×10^5 lymphocytes were seeded over chambered coverslips (LabTek) pre-coated with 6 μg/ml ICAM-1 and 2 μg/ml SDF-1α. Cells were incubated at 37° C., 5% CO2 and DIC images were acquired with the Zeiss Observer Z1 inverted microscope every 5 s for 20 min under a 20× objective lens using Zen software. The random movement (Displacement and velocity) of the cells was automatically tracked and analyzed using TrackMate plugin of ImageJ software. An individual trace was assigned to each of the analyzed cells.

[4] = test system: WAS−/− Jurkat T-cells; experiment: Lymphocyte activation (CD69, flow cytometry), WAS−/− cells; format: cell-based, human
Procedure: 1×10^6 WASp knockout Jurkat T-cell line that expresses only exogenous YFP-WASp harboring the common human WAS and XLT mutation, R86C (WAS−/−/WASp R86C) was pretreated with either negative control or SMC #34. Cells that completely lack WASp expression (WAS^−/−) were also treated with the control. The cells were then stimulated with PMA and Ionomycin. After incubation, the cells were stained with PE-Cy5™-conjugated mouse anti-human CD69 and lymphocyte activation was measured by flow cytometry as described in Experimental procedures. Histogram of negative control versus SMC #34 is presented.
as §1

T1 sequence (O00401 whole entry, species assumed): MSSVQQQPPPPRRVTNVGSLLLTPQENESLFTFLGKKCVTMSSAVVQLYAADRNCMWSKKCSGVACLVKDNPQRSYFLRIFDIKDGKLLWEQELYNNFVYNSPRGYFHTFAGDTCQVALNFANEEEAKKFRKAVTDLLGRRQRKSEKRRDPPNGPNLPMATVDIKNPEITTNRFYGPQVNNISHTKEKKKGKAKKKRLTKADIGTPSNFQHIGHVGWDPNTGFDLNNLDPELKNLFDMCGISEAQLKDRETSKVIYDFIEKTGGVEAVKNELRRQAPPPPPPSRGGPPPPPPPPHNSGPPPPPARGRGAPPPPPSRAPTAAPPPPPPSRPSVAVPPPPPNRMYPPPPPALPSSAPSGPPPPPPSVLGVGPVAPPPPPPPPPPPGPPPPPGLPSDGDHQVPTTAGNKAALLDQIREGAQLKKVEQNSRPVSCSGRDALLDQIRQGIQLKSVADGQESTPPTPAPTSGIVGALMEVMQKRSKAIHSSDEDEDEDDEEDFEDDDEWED

SMILES	lymphocyte activation (CD69, activated LFA-1) [1]	binding to N-WASp [2]	migration ([3]; WAS−/−/WASp Y107C cells, vs control)	mean cell displacement ([3]; WAS−/−/WASp Y107C, 20 min, mean ± SE)	lymphocyte activation (CD69) [4]
CC(=O)N[C@H]1C[C@@H](c2ccc3c(c2)nnn3C)O[C@@H](c2ccc(Cl)cc2)C1 [SMC #6, N-[(2R,4R,6S)-2-(4-chlorophenyl)-6-(1-methylbenzotriazol-5-yl)oxan-4-yl]acetamide]	upregulation	–	–	–	–
CC1CCCC(C)N1C(=O)CSc1nnc(COc2cccc3cccnc23)o1 (centres unmarked) [SMC #34, 1-(2,6-dimethylpiperidin-1-yl)-2-[[5-(quinolin-8-yloxymethyl)-1,3,4-oxadiazol-2-yl]sulfanyl]ethanone]	–	no binding	significantly increased	74.24±8.16	restored the activation
